In patent US12643912B2, “Macrocyclic compounds, a process for their preparation and pharmaceutical compositions containing them” (LES LABORATOIRES SERVIER, priority 2020, dated 2026) one finds EC50 and Kd data, which are given here for three molecules.

Assay [1] concerns Nrf2 (Keap1-NRF2 nuclear translocation). The assay is described as follows: U2OS translocation assay (PathHunter U2OS Keap1-NRF2 Nuclear Translocation Cell Line). Format: cell-based. The settings on record: Homo sapiens, U2OS, 3 h, read-out: CELLULAR U2OS EC50 (nM), U2OS Keap1-NRF2 nuclear translocation cells, 3 h incubation, luminescence, normalized between 1% DMSO and 10 μM andrographolide. In a few lines: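 Enzyme-fragment complementation read-out: luminescence after 60 min of detection reagent at room temperature, following a 3 h, 37° C compound exposure of engineered U2OS Keap1-NRF2 translocation cells (1% FBS medium). Signal scaled from 1% DMSO basal to 10 μM andrographolide maximum.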

Assay [2] has as its target T1, Keap1 (A321-C624) (h) (Homo sapiens, UniProt Q14145).
T1 construct: His-Thromb-KEAP1(A321-C624) acquired from Novalix (batch PU-P01) was immobilized covalently by amine coupling; His tag (N); thrombin cleavage site (Thromb) (N); purchased Novalix batch PU-P01
The assay is described as follows: Surface Plasmon Resonance binding assay to Kelch domain of KEAP1. The following applies: Biacore T200, 25° C., immobilized His-Thromb-KEAP1(A321-C624), single cycle kinetics, KD=kd/ka from 1:1 fit; read-out: Keap1 (A321-C624) (h) direct/SPR (KD). In a few lines: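 His-Thromb-KEAP1(A321-C624) amine-coupled on CM5 chip to 1250 RU; amine blank reference. Run at 25° C in HEPES pH 7.4, 150 mM NaCl, 3 mM EDTA, 1 mM TCEP, 0.05% P20, 5% DMSO; 180 s association, 720 s dissociation, 50 μL/min. KD = kd/ka from 1:1 kinetic fit, double-referenced, DMSO solvent-corrected.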
A general note: In SPR one partner is held on a chip, and binding of the other changes the refractive index at the surface.

The EC50 is the midpoint of the concentration-response curve.

T1 sequence (Q14145 321-624): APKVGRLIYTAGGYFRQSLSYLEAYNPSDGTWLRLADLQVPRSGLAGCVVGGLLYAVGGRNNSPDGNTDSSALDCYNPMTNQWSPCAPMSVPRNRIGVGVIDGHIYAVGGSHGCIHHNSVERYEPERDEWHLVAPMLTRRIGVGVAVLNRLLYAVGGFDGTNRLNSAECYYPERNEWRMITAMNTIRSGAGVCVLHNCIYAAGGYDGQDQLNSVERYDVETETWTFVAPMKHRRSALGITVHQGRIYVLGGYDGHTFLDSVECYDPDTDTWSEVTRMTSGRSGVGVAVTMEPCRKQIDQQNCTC

For `[2H]C([2H])(C(=O)O)[C@H]1c2ccc(C)c(c2)CN2Cc3cc(ccc3OS2(=O)=O)OCCCCn2nnc3c(C)c1ccc32` [Example 55b, [(8S)-4,31-Dimethyl-27,27-dioxo-21,26-dioxa-27λ^6-thia-1,14,15,16-tetraazahexacyclo[20.5.3.1^3,70.1^9,130.0^12,160.0^25,29]dotriaconta-3(32),4,6,9(31),10,12,14,22,24,29-decaen-8-yl](^2H2)acetic acid], the EC50 in assay [1] is 15.8 nM. Besides, the Kd in assay [2] came out at 2.5 nM.

On to `Cc1c2ccc3c1nnn3CCCCOc1ccc3c(c1)CN([C@H](C)c1cc(ccc1Cl)[C@@H]2CC(=O)O)S(=O)(=O)O3` [Example 64a, [(2R,8S)-4-chloro-2,31-dimethyl-27,27-dioxo-21,26-dioxa-27λ^6-thia-1,14,15,16-tetraazahexacyclo[20.5.3.1^3,70.1^9,130.0^12,160.0^25,29]dotriaconta-3(32),4,6,9(31),10,12,14,22,24,29-decaen-8-yl]acetic acid], for which the 50% effective concentration (EC50) in assay [1] amounted to 24 nM. Also, the Kd in assay [2] turned out to be 0.195 nM.

Consider `Cc1ccc2cc1[C@@H](C)N1Cc3cc(ccc3OS1(=O)=O)OCCC1(CCOCC1)Cn1nnc3c(C)c(ccc31)C2CC(=O)O` (stereo partly drawn) [Example 68, [(2R)-2,4,31-Trimethyl-27,27-dioxo-27λ^6-spiro[21,26-dioxa-27-thia-1,14,15,16-tetraazahexacyclo[20.5.3.1^3,70.1^9,130.0^12,160.0^25,29]dotriaconta-3(32),4,6,9(31),10,12,14,22,24,29-decaene-18,4′-oxan]-8-yl]acetic acid], for which the concentration giving a half-maximal response (EC50) in assay [1] was found to be 38.3 nM. The Kd in assay [2] was found to be 8.96 nM.
